pIC50: −log10 of the molar value. Structures can show the parent of a compound that is named as a salt.
How the values were obtained:
[1] = system: Phosphorylated Ribosomal Protein S6 (RPS6) in THP-1 cells; experiment: THP-1 RPS6 ELISA Assay; type: cell-based, Human; details: Homo sapiens, MCP-1 stimulated, phospho-RPS6 ELISA, read-out: THP p-RPS6 ELISA IC50
Summary of the method: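 Serum-starved THP-1 cells (2×10^5/well, RPMI) preincubated with compound 2 h at 37° C, then stimulated with 10 nM MCP-1 for 15 min. Lysates assayed by phospho-RPS6 ELISA, absorbance 450 nm (540 nm correction); IC50 from percent inhibition versus log concentration.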

[2] = target: PI3Kγ (p110γ) Recombinant Human Protein (Homo sapiens (Human), UniProt P48736); experiment: PI3K-γ Scintillation Proximity Assay; type: biochemical; details: read-out: PI3K-gamma SPA IC50
Sequence of PI3Kγ (p110γ) Recombinant Human Protein (P48736 whole entry): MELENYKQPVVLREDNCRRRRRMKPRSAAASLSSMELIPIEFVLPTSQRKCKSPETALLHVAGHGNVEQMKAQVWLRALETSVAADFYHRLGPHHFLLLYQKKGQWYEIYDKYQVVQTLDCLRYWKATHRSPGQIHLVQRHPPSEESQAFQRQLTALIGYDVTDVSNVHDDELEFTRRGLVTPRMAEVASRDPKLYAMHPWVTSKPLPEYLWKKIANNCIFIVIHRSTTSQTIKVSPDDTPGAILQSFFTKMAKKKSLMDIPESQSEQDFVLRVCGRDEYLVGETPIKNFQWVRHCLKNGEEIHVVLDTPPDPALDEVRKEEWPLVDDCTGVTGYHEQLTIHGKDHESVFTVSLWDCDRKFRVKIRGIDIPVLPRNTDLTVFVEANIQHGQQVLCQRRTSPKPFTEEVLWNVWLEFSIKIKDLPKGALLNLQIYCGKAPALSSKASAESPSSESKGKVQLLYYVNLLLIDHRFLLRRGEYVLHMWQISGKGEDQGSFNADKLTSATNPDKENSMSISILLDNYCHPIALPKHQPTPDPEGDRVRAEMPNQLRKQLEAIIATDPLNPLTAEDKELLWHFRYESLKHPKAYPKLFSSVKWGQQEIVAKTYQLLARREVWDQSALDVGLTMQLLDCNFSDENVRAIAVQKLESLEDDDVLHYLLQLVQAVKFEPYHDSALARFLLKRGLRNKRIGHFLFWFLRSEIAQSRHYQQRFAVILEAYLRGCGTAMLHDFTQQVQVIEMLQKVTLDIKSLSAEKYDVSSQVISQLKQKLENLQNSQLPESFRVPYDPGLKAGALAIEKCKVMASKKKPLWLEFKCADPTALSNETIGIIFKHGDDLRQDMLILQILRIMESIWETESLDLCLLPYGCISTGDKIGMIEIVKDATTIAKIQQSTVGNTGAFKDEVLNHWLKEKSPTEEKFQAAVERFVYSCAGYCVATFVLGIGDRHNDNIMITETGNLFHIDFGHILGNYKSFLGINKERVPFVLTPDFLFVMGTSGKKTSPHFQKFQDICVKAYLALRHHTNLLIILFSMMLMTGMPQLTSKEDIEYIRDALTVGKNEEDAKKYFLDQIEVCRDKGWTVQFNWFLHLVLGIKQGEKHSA
Summary of the method: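 Recombinant human p110γ (13 nM) with 20 μM PIP2 and 2 μM ATP plus 0.5 μCi [γ-33P]ATP in 20 mM MOPS pH 6.7, 10 mM MgCl2, 5 mM DTT, 0.03% CHAPS, 2% DMSO, 120 min at room temperature. Product captured on WGA SPA beads and counted; IC50 fitted from % of solvent control versus log concentration.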

[3] = target: PI3Kδ (p110δ/p85α) Recombinant Human Protein (Homo sapiens (Human), UniProt O00329); experiment: PI3Kδ Scintillation Proximity Assay; type: biochemical; details: read-out: PI3K-delta SPA IC50
Sequence of PI3Kδ (p110δ/p85α) Recombinant Human Protein (O00329 whole entry): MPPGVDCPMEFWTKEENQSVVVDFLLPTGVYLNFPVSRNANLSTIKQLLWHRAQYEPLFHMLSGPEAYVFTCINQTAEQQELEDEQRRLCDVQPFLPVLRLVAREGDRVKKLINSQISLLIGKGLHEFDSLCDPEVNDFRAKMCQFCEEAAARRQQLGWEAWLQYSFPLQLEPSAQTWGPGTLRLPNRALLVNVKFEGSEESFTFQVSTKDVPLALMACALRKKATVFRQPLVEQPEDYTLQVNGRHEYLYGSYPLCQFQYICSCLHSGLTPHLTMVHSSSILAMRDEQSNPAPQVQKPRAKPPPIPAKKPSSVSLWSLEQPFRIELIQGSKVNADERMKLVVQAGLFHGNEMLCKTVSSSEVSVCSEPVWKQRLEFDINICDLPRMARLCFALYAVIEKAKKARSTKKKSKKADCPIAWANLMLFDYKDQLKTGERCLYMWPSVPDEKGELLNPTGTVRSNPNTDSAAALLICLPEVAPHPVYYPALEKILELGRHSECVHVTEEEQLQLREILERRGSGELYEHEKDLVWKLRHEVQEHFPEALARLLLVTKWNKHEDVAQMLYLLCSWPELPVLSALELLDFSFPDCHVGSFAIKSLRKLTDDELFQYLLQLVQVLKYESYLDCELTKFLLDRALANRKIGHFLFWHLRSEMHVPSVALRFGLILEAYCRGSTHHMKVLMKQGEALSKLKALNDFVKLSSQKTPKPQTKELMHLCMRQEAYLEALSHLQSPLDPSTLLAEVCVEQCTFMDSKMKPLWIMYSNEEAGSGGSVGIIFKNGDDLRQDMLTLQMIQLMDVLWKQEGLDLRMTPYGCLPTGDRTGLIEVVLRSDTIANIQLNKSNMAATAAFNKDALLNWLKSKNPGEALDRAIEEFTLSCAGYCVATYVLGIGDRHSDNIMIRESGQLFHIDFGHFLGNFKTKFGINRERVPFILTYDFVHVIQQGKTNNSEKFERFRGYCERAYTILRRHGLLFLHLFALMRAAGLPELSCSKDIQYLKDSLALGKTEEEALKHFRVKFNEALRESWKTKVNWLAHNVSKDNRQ
Sequence of PI3Kδ (p110δ/p85α) Recombinant Human Protein (P27986 whole entry partner): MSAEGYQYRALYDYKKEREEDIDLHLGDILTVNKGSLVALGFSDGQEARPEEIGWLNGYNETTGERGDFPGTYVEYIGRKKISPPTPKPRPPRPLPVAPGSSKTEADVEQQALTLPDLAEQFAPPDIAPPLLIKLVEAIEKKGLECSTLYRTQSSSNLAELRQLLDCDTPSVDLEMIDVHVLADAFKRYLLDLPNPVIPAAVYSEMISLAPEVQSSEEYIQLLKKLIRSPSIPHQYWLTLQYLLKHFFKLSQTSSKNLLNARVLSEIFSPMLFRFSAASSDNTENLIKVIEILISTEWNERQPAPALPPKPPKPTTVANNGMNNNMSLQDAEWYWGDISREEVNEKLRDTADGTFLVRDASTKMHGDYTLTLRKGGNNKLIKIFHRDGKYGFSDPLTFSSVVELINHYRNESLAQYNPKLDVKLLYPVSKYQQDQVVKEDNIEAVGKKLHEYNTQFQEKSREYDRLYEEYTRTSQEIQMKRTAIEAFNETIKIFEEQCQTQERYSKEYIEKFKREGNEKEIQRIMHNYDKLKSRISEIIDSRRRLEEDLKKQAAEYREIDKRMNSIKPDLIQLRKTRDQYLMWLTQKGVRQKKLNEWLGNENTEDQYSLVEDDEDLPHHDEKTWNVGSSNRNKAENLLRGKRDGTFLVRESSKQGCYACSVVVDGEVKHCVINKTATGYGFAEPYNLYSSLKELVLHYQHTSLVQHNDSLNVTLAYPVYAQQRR
Summary of the method: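 Kinase reaction run at room temperature in 20 mM MOPS pH 6.7, 10 mM MgCl2, 5 mM DTT, 0.03% CHAPS with 20 μM PIP2, 2 μM ATP plus [γ-33P]ATP, 3.4 nM enzyme, 2% DMSO; 120 min. Quenched with WGA SPA beads/EDTA, counted by scintillation; IC50 from % solvent-control activity vs log concentration.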

How did the pIC50 [1] turn out when `COc1cncc(-c2ccnc(-c3nnc(NC(C)C)[nH]3)c2)c1` [Example 67, N-Isopropyl-5-(5-methoxy-3,4′-bipyridin-2′-yl)-4H-1,2,4-triazol-3-amine trifluoroacetate salt] was run?
Its pIC50 is under 5.30.

What about the pIC50 [2] of the same compound?
The pIC50 was at least 6.30.

And the pIC50 [3]?
The pIC50 was at least 6.30.

Source: patent publication US11352340B2, “Pyridine and pyridimine compounds as PI3K-gamma inhibitors” (Incyte Corporation, priority 2016, dated 2022)
